Experimental data as given in ChEMBL document CHEMBL1157430, “Design, synthesis, and structure-activity relationship study of a novel class of ORL1 receptor antagonists based on N-biarylmethyl spiropiperidine” (Bioorg Med Chem Lett, 2008).

Key:
[1] = tested on: CHO; assay: Displacement of [125I]Tyr14-NC/OFQ from human ORL1 expressed in CHO cells at 1 uM; format: cell-based
[2] = Displacement of [125I]Tyr14-NC/OFQ from human ORL1 expressed in CHO cells; format: cell-based; conditions: read-out: I50
[3] = Lipophilicity Log D at pH 7.4 by shake flask method; format: physicochemical; conditions: buffer
[4] = Antagonist activity at human ORL1 expressed in CHO cells by GTPgammaS binding assay; format: cell-based; conditions: read-out: I50
[5] = molecular target: Mu-type opioid receptor (Homo sapiens, UniProt P35372); assay: Displacement of [3H]diprenorphin from human cloned mu opioid receptor expressed in CHO cells; format: cell-based
[6] = molecular target: Kappa-type opioid receptor (Homo sapiens, UniProt P41145); assay: Displacement of [3H]U69593 from human cloned kappa opioid receptor expressed in CHO cells; format: cell-based
[7] = molecular target: Voltage-gated inwardly rectifying potassium channel KCNH2 (Homo sapiens, UniProt Q12809); assay: Displacement of [35S]MK499 from human ERG in HEK293 cell membrane
[8] = Metabolic stability in human liver microsomes at 1 uM after 30 mins; format: ADME, Microsome; conditions: read-out: Stability
[9] = Metabolic stability in rat liver microsomes at 1 uM after 30 mins; format: ADME, Microsome; conditions: read-out: Stability

Sequence of Mu-type opioid receptor (P35372 whole entry): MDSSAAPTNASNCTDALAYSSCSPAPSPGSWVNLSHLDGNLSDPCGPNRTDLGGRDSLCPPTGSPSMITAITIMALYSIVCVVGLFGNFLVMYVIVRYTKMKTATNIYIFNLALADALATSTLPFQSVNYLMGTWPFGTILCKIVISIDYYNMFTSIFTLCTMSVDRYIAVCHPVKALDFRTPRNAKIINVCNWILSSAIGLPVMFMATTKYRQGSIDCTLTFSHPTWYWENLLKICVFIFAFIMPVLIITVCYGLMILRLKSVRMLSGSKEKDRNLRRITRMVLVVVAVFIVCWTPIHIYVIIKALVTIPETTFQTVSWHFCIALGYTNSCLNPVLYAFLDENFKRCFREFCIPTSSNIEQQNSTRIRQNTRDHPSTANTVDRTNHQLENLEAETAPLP
Sequence of Kappa-type opioid receptor (P41145 whole entry): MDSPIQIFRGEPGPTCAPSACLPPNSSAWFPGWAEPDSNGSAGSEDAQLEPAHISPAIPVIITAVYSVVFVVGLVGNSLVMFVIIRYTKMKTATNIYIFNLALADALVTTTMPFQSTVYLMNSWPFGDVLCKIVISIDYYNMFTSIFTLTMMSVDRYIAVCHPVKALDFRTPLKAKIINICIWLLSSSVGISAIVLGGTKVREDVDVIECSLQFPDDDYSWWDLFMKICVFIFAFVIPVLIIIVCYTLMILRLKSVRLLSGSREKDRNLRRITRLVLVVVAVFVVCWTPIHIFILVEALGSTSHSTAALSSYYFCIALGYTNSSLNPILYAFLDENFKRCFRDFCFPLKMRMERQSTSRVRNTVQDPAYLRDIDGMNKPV
Sequence of Voltage-gated inwardly rectifying potassium channel KCNH2 (Q12809 whole entry): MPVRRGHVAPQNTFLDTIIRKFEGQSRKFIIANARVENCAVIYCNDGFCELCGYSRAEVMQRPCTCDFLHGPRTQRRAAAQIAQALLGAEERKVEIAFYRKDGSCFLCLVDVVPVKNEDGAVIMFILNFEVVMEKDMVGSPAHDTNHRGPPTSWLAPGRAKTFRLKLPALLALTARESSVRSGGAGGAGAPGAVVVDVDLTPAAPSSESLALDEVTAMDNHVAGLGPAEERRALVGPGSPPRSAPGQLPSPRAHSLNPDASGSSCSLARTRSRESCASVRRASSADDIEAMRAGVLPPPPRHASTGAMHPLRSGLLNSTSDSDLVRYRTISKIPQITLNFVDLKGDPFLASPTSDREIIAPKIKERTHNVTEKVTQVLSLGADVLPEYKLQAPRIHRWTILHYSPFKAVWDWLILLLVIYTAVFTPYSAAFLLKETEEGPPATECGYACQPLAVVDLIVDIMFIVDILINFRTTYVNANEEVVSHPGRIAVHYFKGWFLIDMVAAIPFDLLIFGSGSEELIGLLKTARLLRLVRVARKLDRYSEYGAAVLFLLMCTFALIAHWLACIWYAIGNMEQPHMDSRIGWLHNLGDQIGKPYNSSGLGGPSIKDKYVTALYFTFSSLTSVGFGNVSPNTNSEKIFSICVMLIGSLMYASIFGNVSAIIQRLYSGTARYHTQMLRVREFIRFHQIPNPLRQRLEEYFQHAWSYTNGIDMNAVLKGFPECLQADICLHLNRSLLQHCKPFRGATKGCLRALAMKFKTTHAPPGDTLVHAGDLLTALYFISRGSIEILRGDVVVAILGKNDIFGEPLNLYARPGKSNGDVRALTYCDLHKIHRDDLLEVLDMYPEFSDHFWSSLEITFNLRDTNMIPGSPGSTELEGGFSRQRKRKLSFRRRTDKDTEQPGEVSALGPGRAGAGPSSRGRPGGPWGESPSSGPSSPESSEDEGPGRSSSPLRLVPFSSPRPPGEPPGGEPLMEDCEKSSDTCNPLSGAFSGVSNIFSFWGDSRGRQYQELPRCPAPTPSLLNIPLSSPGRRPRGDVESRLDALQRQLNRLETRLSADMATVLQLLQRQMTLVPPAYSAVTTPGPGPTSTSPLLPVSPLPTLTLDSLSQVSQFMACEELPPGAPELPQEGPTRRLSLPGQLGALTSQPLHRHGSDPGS

SMILES	IC50 [2] [nM]	logD [3]	other results
c1cncc(-c2ccc(CN3CCC4(CC3)OCc3ccccc34)cc2)c1	> 1000		inhibition [1]: 15%
c1ccc(-n2cc(CN3CCC4(CC3)OCc3ccccc34)nn2)cc1	190		
Cc1nn(-c2cccnc2)cc1CN1CCC2(CC1)OCc1ccccc12	130	3.2	
Cc1nn(-c2cccc(Cl)n2)cc1CN1CCC2(CC1)OCc1ccccc12	43	3.9	
CC(C)(C)c1nn(-c2ccccc2)cc1CN1CCC2(CC1)OCc1ccccc12	59		
Cc1nn(-c2ccccc2)c(C)c1CN1CCC2(CC1)OCc1ccccc12	13		
Cc1nn(-c2ncccc2NS(C)(=O)=O)cc1CN1CCC2(CC1)OCc1ccccc12	11	2.1	
Cc1ccnc(-n2cc(CN3CCC4(CC3)OCc3ccccc34)c(C)n2)c1	19	3.2	IC50 [4]: 45 nM
CNC(=O)c1cccnc1-n1cc(CN2CCC3(CC2)OCc2ccccc23)c(C)n1	22	1.4	
Cc1cccnc1-n1cc(CN2CCC3(CC2)OCc2ccccc23)c(C)n1	2.6	2.7	IC50 [5]: 4400 nM; IC50 [6]: > 10000 nM; IC50 [7]: 13000 nM; remaining at 0.5 h, 1 µM [8]: 64%; remaining at 0.5 h, 1 µM [9]: 1%; IC50 [4]: 2.6 nM
c1cncc(-c2cccc(CN3CCC4(CC3)OCc3ccccc34)c2)c1	> 1000		inhibition [1]: 45%
c1ccc(-n2nccc2CN2CCC3(CC2)OCc2ccccc23)cc1	> 1000		inhibition [1]: -2%
Cc1nn(-c2ccncc2)cc1CN1CCC2(CC1)OCc1ccccc12	820	3.7	
Cc1nn(-c2cnccn2)cc1CN1CCC2(CC1)OCc1ccccc12	200	3.5	
c1ccc(-c2csc(CN3CCC4(CC3)OCc3ccccc34)n2)cc1	> 1000		inhibition [1]: -7%
c1ccc(-c2cccc(CN3CCC4(CC3)OCc3ccccc34)c2)nc1	310		
CC(C)c1nn(-c2ccccc2)cc1CN1CCC2(CC1)OCc1ccccc12	21		

SMILES	IC50 [2] [nM]	logD [3]	other results
Cc1nn(-c2ccccc2)nc1CN1CCC2(CC1)OCc1ccccc12	> 1000		inhibition [1]: 36%
Cc1nn(-c2c(Cl)cccc2NS(C)(=O)=O)cc1CN1CCC2(CC1)OCc1ccccc12	1.9	2.1	IC50 [5]: > 10000 nM; IC50 [6]: > 10000 nM; IC50 [7]: 17000 nM; remaining at 0.5 h, 1 µM [8]: 54%; remaining at 0.5 h, 1 µM [9]: 69%; IC50 [4]: 0.53 nM
c1cc(CN2CCC3(CC2)OCc2ccccc23)cc(-c2ccncc2)c1	> 1000		inhibition [1]: 18%
CCc1nn(-c2ccccc2)cc1CN1CCC2(CC1)OCc1ccccc12	9.4		IC50 [4]: 8.4 nM
Cc1nn(-c2ccccn2)cc1CN1CCC2(CC1)OCc1ccccc12	12	3.1	IC50 [4]: 16 nM
c1ccc(-n2cc(CN3CCC4(CC3)OCc3ccccc34)cn2)cc1	40		
c1ccc(Cc2nn(-c3ccccc3)cc2CN2CCC3(CC2)OCc2ccccc23)cc1	30		
Cc1nn(-c2ccc(Cl)cn2)cc1CN1CCC2(CC1)OCc1ccccc12	280	3.5	
Cc1nn(-c2ccccc2)cc1CN1CCC2(CC1)OCc1ccccc12	6.9	> 4	IC50 [5]: 3200 nM; IC50 [6]: 9700 nM; remaining at 0.5 h, 1 µM [8]: 28%; remaining at 0.5 h, 1 µM [9]: 4%; IC50 [4]: 1.6 nM
Cc1c(CN2CCC3(CC2)OCc2ccccc23)cnn1-c1ccccc1	100		
Cc1nn(-c2ncccc2Cl)cc1CN1CCC2(CC1)OCc1ccccc12	4.5	3.1	IC50 [5]: 7400 nM; IC50 [6]: > 10000 nM; remaining at 0.5 h, 1 µM [8]: 60%; remaining at 0.5 h, 1 µM [9]: 6%; IC50 [4]: 2.7 nM
c1ccc(-c2nc(CN3CCC4(CC3)OCc3ccccc34)cs2)cc1	> 1000		inhibition [1]: 3%
c1cncc(-c2ccccc2CN2CCC3(CC2)OCc2ccccc23)c1	> 1000		inhibition [1]: 31%
CC(=O)Nc1cccnc1-n1cc(CN2CCC3(CC2)OCc2ccccc23)c(C)n1	27	3.2	
Cc1nn(-c2ncccn2)cc1CN1CCC2(CC1)OCc1ccccc12	93	2.9	
Cc1nn(-c2ccccc2Cl)cc1CN1CCC2(CC1)OCc1ccccc12	0.65	3.7	IC50 [4]: 0.87 nM
